Test results as given in patent US8962600B2, “Neuroprotective compounds and their use” (The Medical College of Wisconsin, Inc., priority 2009, dated 2015).

What was measured:
GFAP = GFAP expression in substantia nigra (astroglial activation), immunostaining; assay type: in vivo, C57BL/6 mice; settings: diapocynin 300 mg/kg gavage, 1 day pre-treatment + 4 days co-treatment with MPTP 25 mg/kg i.p.
Method: For checking inflammatory and oxidative stress markers, mice were gavaged diapocynin (300 mg/kg dose) 1 day before MPTP treatment (pre-treatment) and continued for another 4 days of co-treatment with MPTP. In the sub-acute MPTP regimen, MPTP (25 mg/kg) was injected intraperitoneally once per day from day 2 to day 7. Control mice received saline at the same dosage.
Four days after MPTP treatment, mice were perfused with 4% paraformaldehyde (PFA) and post-fixed with PFA and 30% sucrose, respectively. Next, fixed brains were cut into 30 μm sections and kept in 30% sucrose-ethylene glycol solutions at −20° C. On the day of staining, sections were rinsed with phosphate-buffered saline (PBS) and incubated with different primary antibodies, including anti-IBA-1 (DAKO, Carpinteria, Calif.), anti-GFAP (Millipore, Billerica, Mass.), anti-iNOS (Santa Cruz Biotechnology, Santa Cruz, Calif.), anti-3NT (Millipore), anti-4HNE (R&D Systems, Minneapolis, Minn.) and anti-gp91phox (Santa Cruz Biotechnology) for overnight at 4° C. Appropriate secondary antibodies (Alexa Fluor 488, 594, or 555 from Invitrogen, Carlsbad, Calif.) were used followed by incubation with 10 μg/ml Hoechst 33342 for 5 min at room temperature to stain the nucleus. Sections were viewed under a Nikon inverted fluorescence microscope (model TE-2000U; Nikon, Tokyo, Japan). […]

MPTP-intoxicated mice [1] = assay: Open Field locomotor activity in MPTP-injected mice; assay type: in vivo, C57BL/6 mice; settings: MPTP- and diapocynin-treated mice; 300 mg/kg oral gavage; 5 days after last MPTP injection; 10 min session
Method: (§1) Six- to 8-week-old C57BL/6 mice weighing 24 to 28 g were housed in standard conditions of constant temperature (22±1° C.), humidity (relative, 30%), and a 12-h light/dark cycle. Mice were allowed free access to food and water. Use of the animals and protocol procedures were approved and supervised by the Committee on Animal Care at Iowa State University (Ames, Iowa). For neurodegeneration studies, mice either received diapocynin (300 mg/kg dose) by oral gavage for 1 day (pre-treatment before MPTP administration), 5 days (co-treatment with MPTP), or 7 days (post-treatment after MPTP).
(§2) Two types of behavioral tests were performed including an Open Field experiment for testing locomotor activities and a Rotarod experiment to test coordination of movement of mice after MPTP and diapocynin treatment (48, 56). An Open Field activity monitor (model RXYZCM-16; AccuScan, Columbus, Ohio) was used to measure the spontaneous activity of mice. The activity chamber was 40×40×30.5 cm, made of clear PLEXIGLAS® and covered with a PLEXIGLAS® lid with holes for ventilation. Infrared monitoring sensors were located every 2.54 cm along the perimeter (16 infrared beams along each side) and 2.5 cm above the floor. Two additional sets of 16 sensors were located 8.0 cm above the floor on opposite sides. Data were collected and analyzed by a VersaMax Analyzer (model CDA-8, AccuScan). […]

MPTP-intoxicated mice [2] = assay: Rotarod in MPTP-injected mice; assay type: in vivo, C57BL/6 mice; settings: 20 rpm; MPTP- and diapocynin-treated mice; 300 mg/kg oral gavage; 5 days after last MPTP injection
Method: as §1, §2

IL-1β = assay: LPS-induced IL-1β release in primary microglia, LUMINEX immunoassay; assay type: cell-based, mouse; settings: diapocynin 10 μM, LPS 24 hr
Method: (§3) Primary microglia were obtained from 1-2 day old C57/b16 mouse pups. Upon collection, whole brains were kept in ice-cold DMEM-F12 medium containing 10% FBS, 1× sodium pyruvate, 1× NEAAs, 100 units pen/strep, and Q. After collection, the brains were placed in 0.25% trypsin-EDTA and incubated at 37° C., with gentle shaking every 5-10 min. After 30 min, the trypsin was removed, and the brains are washed in warmed medium twice. After washing, medium was added to the brains, and the brains were homogenized using gentle pipetting, starting with a 25 ml pipette and moving to smaller pipette tips as the brains were broken up. When the brains were sufficiently homogenized to a single-cell suspension, they were filtered with a 70 μm nylon filter, which allowed microglia and astrocytes to be collected. The resultant cell suspension was plated in T-75 flasks and allowed to grow for 12-14 days at 37° C., 5% CO2. […]
(§4) Cytokine levels of BV2 and microglial cells treated with diapocynin were determined by LUMINEX® multiplex immunoassay. […]
(§5) Cytokine standards and controls were adjusted to 40 μl volume and the LUMINEX® Samples were run on a LUMINEX® 200 Total System and analyzed with Multiplex Analysis—LUMINEX® Software (Invitrogen, Carlsbad, Calif.).

IL-10 = assay: LPS-induced IL-10 release in primary microglia, LUMINEX immunoassay; assay type: cell-based, mouse; settings: diapocynin 10 μM, LPS 24 hr
Method: as §3, §4, §5

COc1cc(C(C)=O)cc(-c2cc(C(C)=O)cc(OC)c2O)c1O [diapocynin]
GFAP protein expression in substantia nigra (GFAP): inhibition
horizontal activity (Open Field) (MPTP-intoxicated mice [1]): significantly improved
vertical activity (Open Field) (MPTP-intoxicated mice [1]): significantly improved
decrease in time spent on Rotarod compared to control mice (MPTP-intoxicated mice [2]): < 25%
blocking LPS-induced release of IL-1β (IL-1β): very effective
blocking LPS-induced release of IL-10 (IL-10): very effective
